Source: US12678511B2, “Peptide and use thereof” (Kansai Medical University Educational Corgoration, priority 2019, dated 2026)
Peptide text beside a SMILES is read from it. * marks the point of attachment. 5FAM = O=C1OC2(c3ccc(O)cc3Oc3cc(O)ccc32)c2ccc(C(=O)*)cc21

Columns and labels:
[1] = test system: cancer stroma (fibrous stroma) of tumor tissue, BxPC3 cells and hMSC transplanted; assay: Selective absorption in scirrhous pancreatic cancer model mouse (tissue analysis); format: in vivo; settings: 200 μg intravenous, 30 minutes after injection, FIG. 7B, 7C
Text: A scirrhous pancreatic cancer model mouse having scirrhous carcinoma that forms abundant cancer stroma was produced in accordance with the method disclosed in Reference Document 1 (Saito K et al., “Stromal mesenchymal stem cells facilitate pancreatic cancer progression by regulating specific secretory molecules through mutual cellular interaction.”, Journal of Cancer, Vol. 9, No. 16, pp. 2916-2929, 2018). Specifically, 6-week old NOD/SCID mice (CLEA Japan Inc., Japan) were raised under pathogen-free conditions. A cell mixture containing BxPC3 cells (1×10^5 cells) and hMSC (1×10^5 cells) was injected either subcutaneously or into the abdominal cavity of each mouse. By raising the mice for 6 weeks from the time of cell injection, scirrhous pancreatic cancer model mice were obtained having an abundantly developed cancer stroma that imitates the tissue in a human pancreatic cancer patient (see FIG. 7A).
[FAM]-tandem MSCPP106 (200 μg) was injected intravenously into each obtained scirrhous carcinoma model mouse. Subsequently, the pharmacokinetics of the peptide 30 minutes after the intravenous injection were analyzed by tissue analysis of the freshly dissected specimen of the peptide-administered mouse. FIG. 7B is a series of bright-field images (left) and fluorescent images (right) of various tissues and tumor tissues resected from the scirrhous carcinoma model mouse. […]

[2] = test system: cancer stroma of the stomach scirrhous carcinoma (HSC58 cells and hMSC); assay: Absorption into cancer stroma of scirrhous stomach cancer mouse model; format: in vivo; settings: 300 μg intravenous, 60 minutes after injection, FIG. 10B
Text: Stomach poorly differentiated scirrhous adenocarcinoma, which is an example of a typical scirrhous carcinoma, is classified by visual classification into type 4 stomach cancer, and this type 4 stomach cancer has an extremely poor prognosis, with a five-year survival rate of about at least 4% but not more than 16%. Accordingly, in order to investigate the application of [FAM]-tandem MSCPP106 to the CAF that develop in the scirrhous stroma of cancer other than pancreatic cancer, a scirrhous stomach cancer mouse transplanted model was produced, and the absorption into scirrhous cancer stroma other than pancreatic cancer was investigated. With the exceptions of using human stomach poorly differentiated adenocarcinoma HSC58 cells instead of the BxPC3 cells, and rearing the mouse for 40 days from the time of cell injection, the same method as Example 7 was used to obtain a scirrhous stomach cancer mouse model. The HSC58 cells are a low metastatic human scirrhous stomach cancer cell line. Subsequently, [FAM]-tandem MSCPP106 (300 μg) was injected intravenously into the obtained scirrhous cancer mouse model, and the in-vivo absorption pharmacokinetics of the peptide 60 minutes after the intravenous injection were analyzed by tissue analysis of the freshly dissected specimen of the peptide-administered mouse. […]

In the case of `CC(C)C[C@H](NC(=O)[C@H](Cc1c[nH]cn1)NC(=O)[C@H](CCCNC(=N)N)NC(=O)[C@H](Cc1ccccc1)NC(=O)[C@H](CC(C)C)NC(=O)[C@H](CCC(=O)O)NC(=O)[C@H](C)NC(=O)[C@H](CS)NC(=O)[C@H](CCCCN)NC(=O)CNC(=O)[C@H](CC(C)C)NC(=O)[C@H](Cc1c[nH]cn1)NC(=O)[C@H](CCCNC(=N)N)NC(=O)[C@H](Cc1ccccc1)NC(=O)[C@H](CC(C)C)NC(=O)[C@H](CCC(=O)O)NC(=O)[C@H](C)NC(=O)[C@H](CS)NC(=O)[C@H](CCCCN)NC(=O)c1ccc2c(c1)C(=O)OC21c2ccc(O)cc2Oc2cc(O)ccc21)C(=O)O` [[FAM]-tandem MSCPP106] (5FAM-KCAELFRHLGKCAELFRHL-OH), the “absorption into the cancer stroma (fibrous stroma) inside tumor tissue” value [1] is reported as “strong absorption” and the “absorption into the cancer stroma of the stomach scirrhous carcinoma” value [2] is reported as “strong selective absorption”.
